Reference: patent US20230277504A1, “COMPOSITIONS AND METHODS COMPRISING CELECOXIB OR RELATED COMPOUNDS AND DEXTROMETHORPHAN” (ANTECIP BIOVENTURES II LLC, priority 2012, published 2023)
Several values for one entry are separate records, joined by “and”; a condition that tells them apart may be missing. Equal values may be shown once. Read-outs that look alike come from different tables or passages of the source.

Tests used:
[1] = molecular target: T1, dextromethorphan metabolism (demethylation; CYP2D6) in human liver microsomes (Homo sapiens, UniProt P10635); assay: Inhibition of dextromethorphan metabolism in human liver microsomes; type: in vitro ADME
T1 construct: in the presence of dextromethorphan (2.5 μM) and human liver microsomes (0.5 mg/mL) at 37° C; from tissue; host or cells: human liver microsomes
Description: Inhibition of dextromethorphan metabolism was examined using human liver microsomes. […] In addition, the assay contained NADPH (2 mM), MgCl2 (3 mM), and potassium phosphate buffer (50 mM) at pH 7.4. The assay was initiated by adding the NADPH, and incubation was terminated after 10 minutes by addition of acetonitrile. The samples were centrifuged, and the metabolism of dextromethorphan was analyzed by LC/MS/MS. […] The same assay was carried out on a number of NSAIDs.

pain = conditions: cited from earlier work
[2] = extensive metabolizers of dextromethorphan; 'believed to be'; cited from earlier work

T1 sequence (P10635 whole entry): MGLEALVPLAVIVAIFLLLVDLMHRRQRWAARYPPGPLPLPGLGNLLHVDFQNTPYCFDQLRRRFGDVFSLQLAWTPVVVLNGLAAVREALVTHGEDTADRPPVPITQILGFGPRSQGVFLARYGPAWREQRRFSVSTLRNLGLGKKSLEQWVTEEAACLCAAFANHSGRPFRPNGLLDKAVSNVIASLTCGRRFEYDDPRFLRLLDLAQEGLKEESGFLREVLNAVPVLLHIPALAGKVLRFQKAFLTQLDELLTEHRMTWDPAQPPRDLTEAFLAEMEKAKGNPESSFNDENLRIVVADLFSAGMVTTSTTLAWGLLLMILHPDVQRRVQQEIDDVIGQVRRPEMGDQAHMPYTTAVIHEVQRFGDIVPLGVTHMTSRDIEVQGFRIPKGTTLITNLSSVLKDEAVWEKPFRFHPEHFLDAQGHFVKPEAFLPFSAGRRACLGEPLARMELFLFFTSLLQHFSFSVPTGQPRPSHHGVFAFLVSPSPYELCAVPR

Structure (SMILES): Cc1onc(-c2ccccc2)c1-c1ccc(S(N)(=O)=O)cc1 [Valdecoxib]
- IC50 [1]: 15.2 µM

Structure (SMILES): COc1ccc2cc(CC(=O)O)ccc2c1 [6-methoxy-2-naphthyl acetic acid]
- IC50 ([1]; human liver microsomes 0.5 mg/mL, dextromethorphan 2.5 μM, NADPH 2 mM, 37° C., pH 7.4, 10 minutes, LC/MS/MS, read-out: IC50 (inhibition of dextromethorphan metabolism)): > 1760 µM

Structure (SMILES): CC(C(=O)O)c1ccc(-c2ccccc2)c(F)c1 (stereo not shown) [Flurbiprofen]
- IC50 [1]: > 320 µM

Structure (SMILES): COc1ccc2c(c1)[C@]13CCCC[C@@H]1[C@H](C2)N(C)CC3 [dextromethorphan, Dextromethorphan]
- analgesic efficacy (pain; double-blind human studies in chronic and neuropathic pain, review of Weinbroum et al.): ineffective for the most part
- pain reduction versus placebo (pain; patients with diabetic neuropathy and postherpetic neuralgia, Sang et al.): did not reduce pain significantly more than placebo
- analgesic efficacy (pain; patients with facial neuralgias, Gilron et al.): little or no analgesic efficacy
- clearance [2]: about 110 L/min

Structure (SMILES): CC1=C(CC(=O)O)c2cc(F)ccc2/C1=C\c1ccc([S+](C)[O-])cc1 (stereo not shown) [Sulindac]
- IC50 [1]: > 36 µM

Structure (SMILES): CS(=O)(=O)c1ccc(C2=C(c3ccccc3)C(=O)OC2)cc1 [Rofecoxib]
- IC50 [1]: 44.5 µM

Structure (SMILES): Cc1ccc(-c2cc(C(F)(F)F)nn2-c2ccc(S(N)(=O)=O)cc2)cc1 [Celecoxib]
- IC50 [1]: 2.6 to 2.9 µM
- times as active at inhibiting the metabolism of dextromethorphan as the next best compound [1]: about five
- IC50 ([1]; IC50 (inhibition of dextromethorphan metabolism), human liver microsomes 0.5 mg/mL, dextromethorphan 2.5 μM, NADPH 2 mM, 37° C., pH 7.4, 10 minutes, LC/MS/MS): 2.6 µM and 2.9 µM
- times as active at inhibiting the metabolism of dextromethorphan as 6-methoxy-2-naphthyl acetic acid ([1]; human, 10 min, pH 7.4): more than 500 times
